According to patent US8592383B2, “Cycloalkyl-fused tetrahydroquinolines as CRTH2 receptor modulators” (Merck Sharp & Dohme Corp., priority 2011, dated 2013):

molecular target: T1, hCRTH2 (Homo sapiens, UniProt Q9Y5Y4); set-up: expressed in transfected cells; host or cells: HEK (human embryonic kidney) cells expressing hCRTH2; conditions: Radioligand Binding Assay B; 0.7 nM [3H]PGD2, HEK-hCRTH2 membranes
T1 sequence (Q9Y5Y4 1-395): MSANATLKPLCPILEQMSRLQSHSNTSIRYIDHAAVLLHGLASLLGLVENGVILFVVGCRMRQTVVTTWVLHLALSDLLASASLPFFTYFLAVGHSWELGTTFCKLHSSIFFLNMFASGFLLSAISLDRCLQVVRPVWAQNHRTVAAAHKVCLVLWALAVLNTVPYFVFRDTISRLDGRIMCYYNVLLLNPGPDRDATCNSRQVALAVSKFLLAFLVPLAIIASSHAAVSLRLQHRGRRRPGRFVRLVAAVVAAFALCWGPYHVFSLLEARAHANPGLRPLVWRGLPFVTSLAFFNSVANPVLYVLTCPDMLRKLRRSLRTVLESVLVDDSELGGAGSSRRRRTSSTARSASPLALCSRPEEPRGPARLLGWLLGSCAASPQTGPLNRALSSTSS
Procedure: The filters were then washed with 4 mL of the same buffer and residual radioligand bound to the filter was determined by liquid scintillation counting following equilibration in 25 μl Ultima Gold F™ (Unifilter) (Packard).

Row | Ki [nM] | SMILES
1 | 45.7 | O=C(O)CCC(=O)N(C1CC1)C1c2ccccc2N(C(=O)OCc2ccc(Cl)cc2)C2CCCC21 (racemic) [21A, 4-{[cis, cis-4-{[(4-chlorobenzyl)oxy]carbonyl}-2,3,3a,4,9,9a-hexahydro-1H-cyclopenta[b]quinolin-9-yl](cyclopropyl)amino}-4-oxobutanoic acid]
2 | 905 | O=C(O)CCC(=O)N(C1CC1)C1c2ccccc2N(C(=O)Oc2ccccc2)C2CCCC21 (racemic) [21K, 4-{cyclopropyl[cis, cis-4-(phenoxycarbonyl)-2,3,3a,4,9,9a-hexahydro-1H-cyclopenta[b]quinolin-9-yl]amino}-4-oxobutanoic acid]
3 | 2.7 | O=C(O)CCC(=O)N(C1CC1)[C@@H]1c2ccc(F)cc2N(C(=O)OCc2ccccc2)[C@@H]2CCC[C@@H]21 (racemic) [compound 16, 4-[{cis,cis-4-[(Benzyloxy)carbonyl]-6-fluoro-2,3,3a,4,9,9a-hexahydro-1H-cyclopenta[b]quinolin-9-yl}(cyclopropyl)amino]-4-oxobutanoic acid]

Row | SMILES | Ki [nM]
4 | CC(CC(=O)N(C1CC1)C1c2ccccc2N(C(=O)OCc2ccccc2)C2CCCC21)C(=O)O (racemic) [compound 10, 4-[{cis,cis-4-[(Benzyloxy)carbonyl]-2,3,3a,4,9,9a-hexahydro-1H-cyclopenta[b]quinolin-9-yl}(cyclopropyl)amino]-2-methyl-4-oxobutanoic acid] | 514

same assay, conditions: Radioligand Binding Assay B; Table B, rated A-D

Row | SMILES | Ki [nM]
5 | O=C(O)CCC(=O)N(C1CC1)C1c2ccccc2N(C(=O)OCc2ccc(Cl)cc2)C2CCCC21 (racemic) [21A, 4-{[cis, cis-4-{[(4-chlorobenzyl)oxy]carbonyl}-2,3,3a,4,9,9a-hexahydro-1H-cyclopenta[b]quinolin-9-yl](cyclopropyl)amino}-4-oxobutanoic acid] | 20.1 to 200
6 | O=C(O)CCC(=O)N(C1CC1)C1c2ccccc2N(C(=O)Oc2ccc(F)cc2)C2CCCC21 (racemic) [21B, 4-(cyclopropyl{cis, cis-4-[(4-fluorophenoxy)carbonyl]-2,3,3a,4,9,9a-hexahydro-1H-cyclopenta[b]quinolin-9-yl}amino)-4-oxobutanoic acid] | 201 to 7500
7 | COc1ccc(COC(=O)N2c3ccccc3C(N(C(=O)CCC(=O)O)C3CC3)C3CCCC32)cc1 (racemic) [21E, 4-{cyclopropyl[cis, cis-4-{[(4-methoxybenzyl)oxy]carbonyl}-2,3,3a,4,9,9a-hexahydro-1H-cyclopenta[b]quinolin-9-yl]amino}-4-oxobutanoic acid] | 20.1 to 200
8 | O=C(O)CCC(=O)N(C1CC1)C1c2ccccc2N(C(=O)OCc2ccccn2)C2CCCC21 (racemic) [21G, 4-(cyclopropyl{cis, cis-4-[(pyridin-2-ylmethoxy)carbonyl]-2,3,3a,4,9,9a-hexahydro-1H-cyclopenta[b]quinolin-9-yl}amino)-4-oxobutanoic acid] | 20.1 to 200
9 | O=C(O)CCC(=O)N(C1CC1)C1c2ccccc2N(C(=O)Oc2ccccc2)C2CCCC21 (racemic) [21K, 4-{cyclopropyl[cis, cis-4-(phenoxycarbonyl)-2,3,3a,4,9,9a-hexahydro-1H-cyclopenta[b]quinolin-9-yl]amino}-4-oxobutanoic acid] | 201 to 7500
10 | O=C(O)CCC(=O)N(C1CC1)C1c2ccccc2N(C(=O)NCc2ccccc2)C2CCCC21 (racemic) [23C, 4-{[cis, cis-4-(benzylcarbamoyl)-2,3,3a,4,9,9a-hexahydro-1H-cyclopenta[b]quinolin-9-yl](cyclopropyl)amino}-4-oxobutanoic acid] | 20.1 to 200
11 | CN(C(=O)N1c2ccccc2C(N(C(=O)CCC(=O)O)C2CC2)C2CCCC21)c1ccccc1 (racemic) [23D, 4-(cyclopropyl{cis, cis-4-[methyl(phenyl)carbamoyl]-2,3,3a,4,9,9a-hexahydro-1H-cyclopenta[b]quinolin-9-yl}amino)-4-oxobutanoic acid] | 20.1 to 200
12 | O=C(O)CCC(=O)N(C1CC1)C1c2ccccc2N(c2nnc(-c3ccccc3)o2)C2CCCC21 (racemic) [36A, racemic 4-{cyclopropyl[cis, cis-4-(5-phenyl-1,3,4-oxadiazol-2-yl)-2,3,3a,4,9,9a-hexahydro-1H-cyclopenta[b]quinolin-9-yl]amino}-4-oxobutanoic acid] | 20.1 to 200
13 | O=C(O)CCC(=O)N(C1CC1)C1c2ccccc2N(c2nnc(-c3ccc(F)cc3)o2)C2CCCC21 (racemic) [36B, racemic 4-(cyclopropyl{cis, cis-4-[5-(4-fluorophenyl)-1,3,4-oxadiazol-2-yl]-2,3,3a,4,9,9a-hexahydro-1H-cyclopenta[b]quinolin-9-yl}amino)-4-oxobutanoic acid] | 20.1 to 200
14 | O=C(O)CCC(=O)N(C1CC1)C1c2ccccc2N(c2nnc(-c3ccc(OC(F)(F)F)cc3)o2)C2CCCC21 (racemic) [36C, racemic 4-{cyclopropyl[cis, cis-4-{5-[4-trifluoro-(methoxy)phenyl]-1,3,4-oxadiazol-2-yl}-2,3,3a,4,9,9a-hexahydro-1H-cyclopenta[b]quinolin-9-yl]amino}-4-oxobutanoic acid] | 201 to 7500
15 | CC(CC(=O)N(C1CC1)C1c2ccccc2N(C(=O)OCc2ccccc2)C2CCCC21)C(=O)O (racemic) [compound 10, 4-[{cis,cis-4-[(Benzyloxy)carbonyl]-2,3,3a,4,9,9a-hexahydro-1H-cyclopenta[b]quinolin-9-yl}(cyclopropyl)amino]-2-methyl-4-oxobutanoic acid] | 201 to 7500
16 | COC(=O)CCC(=O)N(c1ccccc1)[C@@H]1c2ccccc2N(C(=O)OCc2ccccc2)[C@@H]2CCC[C@@H]21 (racemic) [compound 12, Benzyl cis,cis-9-[(4-methoxy-4-oxobutanoyl)(phenyl)amino]-1,2,3,3a,9,9a-hexahydro-4H-cyclopenta[b]quinoline-4-carboxylate] | 201 to 7500
17 | CCN(C(=O)CCC(=O)O)[C@@H]1c2ccccc2N(C(=O)OCc2ccccc2)[C@@H]2CCC[C@H]12 (racemic) [compound 13, 4-[{cis,cis-4-[(Benzyloxy)carbonyl]-2,3,3a,4,9,9a-hexahydro-1H-cyclopenta[b]quinolin-9-yl}(ethyl)amino]-4-oxobutanoic acid] | 5.1 to 20
18 | O=C(O)CCC(=O)N(C1CC1)[C@@H]1c2ccccc2N(C(=O)c2ccccc2)[C@@H]2CCC[C@@H]21 (racemic) [compound 14, 4-[[cis,cis-4-Benzoyl-2,3,3a,4,9,9a-hexahydro-1H-cyclopenta[b]quinolin-9-yl](cyclopropyl)amino]-4-oxobutanoic acid] | 5.1 to 20
19 | O=C(O)CCC(=O)N(C1CC1)[C@@H]1c2ccc(F)cc2N(C(=O)OCc2ccccc2)[C@@H]2CCC[C@@H]21 (racemic) [compound 16, 4-[{cis,cis-4-[(Benzyloxy)carbonyl]-6-fluoro-2,3,3a,4,9,9a-hexahydro-1H-cyclopenta[b]quinolin-9-yl}(cyclopropyl)amino]-4-oxobutanoic acid] | 1 to 5

More lines, now with the values ahead:

Row | Ki [nM] | SMILES
20 | 201 to 7500 | CN(C(=O)CCCC(=O)O)C1c2ccccc2N(C(=O)c2ccc(OC(F)(F)F)cc2)C2CCCC12 (racemic) [17o, 5-[[cis,cis-2,3,3a,4,9,9a-hexahydro-4-[4-(trifluoromethoxy)benzoyl]-1H-cyclopenta[b]quinolin-9-yl]methylamino]-5-oxopentanoic acid]
21 | 20.1 to 200 | O=C(O)CCC(=O)N(C1CC1)C1c2ccccc2N(C(=O)OCc2ccc3ccccc3c2)C2CCCC21 (racemic) [21C, 4-(cyclopropyl{cis, cis-4-[(naphthalen-2-ylmethoxy)carbonyl]-2,3,3a,4,9,9a-hexahydro-1H-cyclopenta[b]quinolin-9-yl}amino)-4-oxobutanoic acid]
22 | 20.1 to 200 | O=C(O)CCC(=O)N(C1CC1)C1c2ccccc2N(C(=O)OCc2ccccc2F)C2CCCC21 (racemic) [21D, 4-{cyclopropyl[cis, cis-4-{[(2-fluorobenzyl)oxy]carbonyl}-2,3,3a,4,9,9a-hexahydro-1H-cyclopenta[b]quinolin-9-yl]amino}-4-oxobutanoic acid]
23 | 20.1 to 200 | CC(OC(=O)N1c2ccccc2C(N(C(=O)CCC(=O)O)C2CC2)C2CCCC21)c1ccccc1 (racemic) [21F, 4-(cyclopropyl{cis, cis-4-[(1-phenylethoxy)carbonyl]-2,3,3a,4,9,9a-hexahydro-1H-cyclopenta[b]quinolin-9-yl}amino)-4-oxobutanoic acid]
24 | 201 to 7500 | CC(C)(C)COC(=O)N1c2ccccc2C(N(C(=O)CCC(=O)O)C2CC2)C2CCCC21 (racemic) [21H, 4-(cyclopropyl{cis, cis-4-[(2,2-dimethylpropoxy)carbonyl]-2,3,3a,4,9,9a-hexahydro-1H-cyclopenta[b]quinolin-9-yl}amino)-4-oxobutanoic acid]
25 | 201 to 7500 | O=C(O)CCC(=O)N(C1CC1)C1c2ccccc2N(C(=O)OCc2ccncc2)C2CCCC21 (racemic) [21J, 4-(cyclopropyl{cis, cis-4-[(pyridin-4-ylmethoxy)carbonyl]-2,3,3a,4,9,9a-hexahydro-1H-cyclopenta[b]quinolin-9-yl}amino)-4-oxobutanoic acid]
26 | 20.1 to 200 | O=C(O)CCC(=O)N(C1CC1)C1c2ccccc2N(C(=O)OCc2ccc(Cl)c(Cl)c2)C2CCCC21 (racemic) [21L, 4-{cyclopropyl[cis, cis-4-{[(3,4-dichlorobenzyl)oxy]carbonyl}-2,3,3a,4,9,9a-hexahydro-1H-cyclopenta[b]quinolin-9-yl]amino}-4-oxobutanoic acid]
27 | 20.1 to 200 | O=C(O)CCC(=O)N(C1CC1)C1c2ccccc2N(C(=O)OCC2CC2)C2CCCC21 (racemic) [21i, 4-(cyclopropyl{cis, cis-4-[(cyclopropylmethoxy)carbonyl]-2,3,3a,4,9,9a-hexahydro-1H-cyclopenta[b]quinolin-9-yl}amino)-4-oxobutanoic acid]
28 | 20.1 to 200 | O=C(O)CCC(=O)N(C1CC1)C1c2ccccc2N(C(=O)n2ccnc2)C2CCCC21 (racemic) [23B, 4-{cyclopropyl[cis, cis-4-(1H-imidazol-1-ylcarbonyl)-2,3,3a,4,9,9a-hexahydro-1H-cyclopenta[b]quinolin-9-yl]amino}-4-oxobutanoic acid]
29 | 20.1 to 200 | O=C(O)CCC(=O)N(C1CC1)C1c2ccccc2N(S(=O)(=O)c2ccc(OC(F)(F)F)cc2)C2CCCC12 (racemic) [24D, 4-[cyclopropyl[cis,cis-2,3,3a,4,9,9a-hexahydro-4-[[4-(trifluoromethoxy)phenyl]sulfonyl]-1H-cyclopenta[b]quinolin-9-yl]amino]-4-oxobutanoic acid]
30 | 20.1 to 200 | COC(=O)CCC(=O)N(C1CC1)C1c2ccc(F)cc2N(C(=O)OCc2ccccc2)C2CCCC21 (racemic) [compound 15, Benzyl cis,cis-9-[cyclopropyl(4-methoxy-4-oxobutanoyl)amino]-6-fluoro-1,2,3,3a,9,9a-hexahydro-4H-cyclopenta[b]quinoline-4-carboxylate]
